# Measured values: paper PMC9411704, “Assessment of the Carcinogenic Potential of Pretomanid in Transgenic Tg.rasH2 Mice” (International Journal of Toxicology, 2022)
# Like-named read-outs stand apart in the source and are kept apart here. Marks after values point to notes of the source that are not given here.
# Key:
# [1] = set-up: method as in Drug Prescribing information; settings: ref Drug Prescribing information; cited from earlier work
# Rats = test system: Rats; set-up: method as in Drug Prescribing information; settings: ref Drug Prescribing information; cited from earlier work
# Mice = test system: Mice; set-up: method as in Drug Prescribing information; settings: ref Drug Prescribing information; cited from earlier work
# Tg.rasH2 mice = settings: for Incidence of lung adenoma, single / Incidence of lung carcinoma / Incidence of lung adenoma, multiple / Incidence of lung tumors, combined: three IP injections of 1000 mg/kg/day urethane; for Incidence of lung adenoma, multiple / Incidence of lung tumors, combined: P < 0.01; for Mean body weight / Mean food consumption: (SD)
# Method: The vehicle was 0.5% carboxymethylcellulose (CMC) with 0.1% Tween 80 (v/v). The vehicle and pretomanid formulations were administered to mice by oral gavage once daily at a dosing volume of 10 mL/kg. Individual dose volumes were calculated based on each animal’s most recently recorded body weight. The dose formulations were magnetically stirred at room temperature for at least 30 minutes prior to and during dosing. The positive control was urethane in 0.9% sodium chloride and was administered via intraperitoneal injection for a total of three times. The positive control formulation was allowed to stand at room temperature for at least 30 minutes and inverted several times prior to dose administration. Aliquots (0.5 to 1.0 mL) were collected from the top, bottom, and middle of the first (week 1), interim (week 13), and last (week 25) pretomanid dose formulations to assess the accuracy of the concentration and/or homogeneity.
# Male and female Tg.rasH2 [CByB6F1-Tg(HRAS)2Jic (+/−hemizygous c-Ha-ras)] mice (n = 110/sex) approximately 5 weeks of age were assigned to the main cohort groups to assess carcinogenicity. Male and female wild type CByB6F1 mice [CByB6F1-Tg(HRAS)2Jic (−/−homozygous c-Ha-ras)] (n = 34/sex) approximately 6 weeks of age were assigned to the cohort of mice used to assess the toxicokinetics of pretomanid and its M50 metabolite. […] All mice were obtained from Taconic Biosciences (Germantown, NY). The supplier verified that the mice were murine pathogen-free and females were nulliparous and non-pregnant. At the time of dosing initiation (Day 1), the toxicokinetic mice were approximately 8 weeks of age. On Day 1 of the study, the body weights of the main cohort mice ranged from 19.2 to 25.9 grams (males) and from 15.9 to 20.4 grams (females), and the body weights of the TK cohort mice ranged from 23.4 to 30.2 grams (males) and from 17.6 to 23.5 grams (females).
# This study assessed the carcinogenic potential of pretomanid following repeated oral gavage administration once daily for 26 weeks in hemizygous Tg.rasH2 [CByB6F1-Tg(HRAS)2Jic (+/− hemizygous c-Ha-ras)] mice. This study also evaluated the TK profile of pretomanid and metabolite M50 in wild-type CByB6F1 [CByB6F1-Tg(HRAS)2Jic (−/−homozygous c-Ha-ras)] mice. The study was conducted under GLP regulations.
# For carcinogenicity assessment (main cohort), 25 mice/sex were included in the vehicle control and pretomanid-treated groups. At the time of dosing initiation (Day 1), the main cohort mice used for assessing carcinogenicity were approximately 7 weeks of age and weighed between 15.9 to 20.4 g (females) and 19.2 to 25.9 g (males). Male groups (Groups 2, 4, and 6) received pretomanid in vehicle at doses of 5, 15, and 40 mg/kg/day, respectively. Female groups (Groups 3, 5, and 7) received pretomanid in vehicle at doses of 10, 30, and 80 mg/kg/day. Positive control mice (n = 10/sex) were included in the main cohort and received three intraperitoneal injections of urethane in saline (1000 mg/kg/injection) on Days 1, 3, and 5. The test and control articles were administered at a dose volume of 10 mL/kg body weight.
# Clinical signs, body weights, and food consumption were assessed for the main cohort animals to monitor animal health and any potential toxicity from pretomanid administration. In-life measurements were recorded in Provantis™ Version 9.4.6.3 (Instem, Philadelphia, PA).
# All animals, including those in the TK cohort, were observed twice daily for morbidity and mortality. For animals in the main cohort, cage side observations were performed on the day of dosing within 2 hours after the last animal in each group was dosed (Days 1, 3, and 5 for positive control animals).
compound,measurement,setting,value
O=C(Cn1ccnc1[N+](=O)[O-])NCc1ccccc1 [Benznidazole],Genotoxicity,[1],Positive in vitro and in vivo
CCN(CC)C(=O)/C(C#N)=C/c1cc(O)c(O)c([N+](=O)[O-])c1 [Entacapone],Carcinogenicity in rats,Rats,Carcinogenic
same,Genotoxicity,[1],"Positive in vitro, negative in vivo"
same,Carcinogenicity in mice,Mice,Not carcinogenic
Cc1ncc([N+](=O)[O-])n1CCO [Metronidazole],Genotoxicity,[1],"Positive in vitro, negative in vivo"
O=C1CN(/N=C/c2ccc([N+](=O)[O-])o2)C(=O)N1 [Nitrofurantion],Carcinogenicity in rats,Rats,"Not carcinogenic in Holtzman rats or Sprague-Dawley rats, carcinogenic in male F344/N rats"
same,Genotoxicity,[1],"Positive in vitro, negative in vivo"
same,Carcinogenicity in mice,Mice,"Not carcinogenic in Swiss or BDF mice, carcinogenic in female B6C3F1 mice"
"CCOC(N)=O [Positive control, urethane]","Incidence of lung adenoma, single",Tg.rasH2 mice; female,0%
same,Incidence of lung carcinoma,Tg.rasH2 mice; female,0%
same,"Incidence of lung adenoma, multiple",Tg.rasH2 mice; female,100%*
same,"Incidence of lung tumors, combined",Tg.rasH2 mice; female,100%*
same,Mean body weight,"Tg.rasH2 mice; female, urethane 1000 mg/kg IP Days 1, 3, 5, study day 1",17.89 (0.57) Grams
same,Mean body weight,"Tg.rasH2 mice; female, urethane 1000 mg/kg IP Days 1, 3, 5, study day 29",19.81 (0.58) Grams
same,Mean body weight,"Tg.rasH2 mice; female, urethane 1000 mg/kg IP Days 1, 3, 5, study day 57",22.11 (0.68) Grams
same,Mean food consumption,"Tg.rasH2 mice; female, urethane 1000 mg/kg IP Days 1, 3, 5, study days 1-8",3.313 (1.048) Grams/Day
same,Mean food consumption,"Tg.rasH2 mice; female, urethane 1000 mg/kg IP Days 1, 3, 5, study days 29-36",6.218 (1.222) Grams/Day
same,Mean food consumption,"Tg.rasH2 mice; female, urethane 1000 mg/kg IP Days 1, 3, 5, study days 57-64",4.210 (0.524) Grams/Day
same,"Incidence of lung adenoma, single",Tg.rasH2 mice; male,0%
same,Incidence of lung carcinoma,Tg.rasH2 mice; male,0%
same,"Incidence of lung adenoma, multiple",Tg.rasH2 mice; male,100%*
same,"Incidence of lung tumors, combined",Tg.rasH2 mice; male,100%*
same,Mean body weight,"Tg.rasH2 mice; male, urethane 1000 mg/kg IP Days 1, 3, 5, study day 1",21.99 (0.71) Grams
same,Mean body weight,"Tg.rasH2 mice; male, urethane 1000 mg/kg IP Days 1, 3, 5, study day 29",24.81 (1.41) Grams
same,Mean body weight,"Tg.rasH2 mice; male, urethane 1000 mg/kg IP Days 1, 3, 5, study day 57",27.73 (1.74) Grams
same,Mean food consumption,"Tg.rasH2 mice; male, urethane 1000 mg/kg IP Days 1, 3, 5, study days 1-8",2.894 (0.461) Grams/Day
same,Mean food consumption,"Tg.rasH2 mice; male, urethane 1000 mg/kg IP Days 1, 3, 5, study days 29-36",4.044 (0.374) Grams/Day
same,Mean food consumption,"Tg.rasH2 mice; male, urethane 1000 mg/kg IP Days 1, 3, 5, study days 57-64",3.956 (0.359) Grams/Day
same,Clinical signs,"Tg.rasH2 mice; urethane 1000 mg/kg IP Days 1, 3, 5",ataxia and decreased motor activity
same,Body weight change,"Tg.rasH2 mice; urethane 1000 mg/kg IP, first week of the study",weight loss
same,Incidence of alveolar bronchiolar adenomas,"Tg.rasH2 mice; urethane, each sex, P < 0.01 vs vehicle control",100%
